Source: patent publication US9771326B2, “S1P and/or ATX modulating agents” (BIOGEN MA INC., priority 2012, dated 2017)

Legend:
[1] = system: A2B5+ OPCs; test: OPC differentiation assay; format: cell-based, Sprague Dawley rats; conditions: 72 h; rat OPCs in CNTF/T3 media, 3-day incubation, MSD analysis; read-out: positive in the OPC assay (concentration)
Description: OPC Differentiation Assay
Enriched populations of oligodendrocytes were grown from post-natal day 2 (P2) female Sprague Dawley rats. The forebrain was dissected out and placed in Hank's buffered saline solution (HBSS; Invitrogen, Grand Island, N.Y.). The tissue was cut into 1 mm fragments and incubated at 37° C. for 15 minutes in 0.01% trypsin and 10 μg/mL DNase. Dissociated cells were plated on poly-L-lysine-coated T75 tissue culture flasks and grown at 37° C. for 10 days in Dulbecco's modified Eagle's medium (DMEM) with 20% fetal calf serum (Invitrogen). A2B5^+ OPCs were collected by shaking the flask overnight at 200 rpm and 37° C., resulting in a 95% pure population.
For the differentiation assay, 2 μM and 20 μM antagonist or the same concentrations of vehicle (DMSO) were applied to OPCs cultured in CNTF/T3 containing media. After a 3-day incubation, after a 3-day incubation, cell were lysed and then subjected to MSD (Meso Scale Discovery-R) analysis. EC50 was calculated by Prism using a nonlinear sigmoidal dose-response curve cells. Alternatively, cells were lysed in 80 μL lysis buffer (50 mM HEPES [4-(2-hydroxyethyl)-1-piperazine ethanesulfonic acid], pH 7.5, 150 mM NaCl, 1.5 mM MgCl2, 1 mM ethylene glycol tetraacetic acid [EGTA], 1% Triton X-100 and 10% glycerol) for 30 minutes at 4° C. After centrifugation at 14,000 g for 15 minutes, the supernatants were boiled in Laemmli sample buffer, subjected to 4-20% SDS-PAGE, and analyzed by Western blotting with anti-MBP, anti-myelin-associated glycoprotein (MAG), or anti-beta actin antibodies. The secondary antibodies used were anti-mouse IgG-HRP (horseradish peroxidase) and anti-rabbit IgG-HRP respectively.

[2] = molecular target: T1, S1P4 (Homo sapiens, UniProt O95977); test: S1P receptor calcium flux assay, agonist format (S1P4); format: cell-based; conditions: FLIPR TETRA
T1 sequence (O95977 1-384): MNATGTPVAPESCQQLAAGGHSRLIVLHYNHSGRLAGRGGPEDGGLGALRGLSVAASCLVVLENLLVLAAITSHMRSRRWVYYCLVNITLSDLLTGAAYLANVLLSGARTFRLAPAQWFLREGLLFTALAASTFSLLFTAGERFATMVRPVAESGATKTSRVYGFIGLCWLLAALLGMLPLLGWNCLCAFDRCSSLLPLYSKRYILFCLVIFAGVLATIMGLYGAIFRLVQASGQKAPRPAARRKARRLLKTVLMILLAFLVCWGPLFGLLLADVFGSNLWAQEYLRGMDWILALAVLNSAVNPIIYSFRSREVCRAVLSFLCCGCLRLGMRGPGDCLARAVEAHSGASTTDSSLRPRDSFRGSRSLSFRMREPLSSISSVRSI
Source text: (§1) S1P Receptor Activity Assays Agonist percentage activation determinations were obtained by assaying sample compounds and referencing the Emax control for each receptor profiled. Antagonist percentage inhibition determinations were obtained by assaying sample compounds and referencing the control EC80 wells for each receptor profiled. The samples were run using a “Single Addition” assay protocol for the agonist and antagonist assay run. The protocol design was as follows: Compound Preparation Master stock solution: Unless specified otherwise, all sample compounds were diluted in 100% anhydrous DMSO including all serial dilutions. All control wells contained identical solvent final concentrations as did the sample compound wells. Compound plate for assay: The sample compounds were transferred from a master stock solution into a daughter plate that was used in the assay. Each sample compound was diluted into assay buffer (1×HBSS with 20 mM HEPES and 2.5 mM Probenecid) at an appropriate concentration to obtain final concentrations. […] Assay was read for 180 seconds using the FLIPR^TETRA (This assay run added sample compounds and reference agonist to respective wells). […] Once baseline corrections were processed, maximum fluorescence values were exported and data manipulated to calculate percentage activation, percentage inhibition and Z′.

[3] = molecular target: S1P3 (Homo sapiens, UniProt Q99500); test: S1P receptor calcium flux assay, agonist format (S1P3); format: cell-based; conditions: FLIPR TETRA
Sequence of S1P3 (Q99500 whole entry): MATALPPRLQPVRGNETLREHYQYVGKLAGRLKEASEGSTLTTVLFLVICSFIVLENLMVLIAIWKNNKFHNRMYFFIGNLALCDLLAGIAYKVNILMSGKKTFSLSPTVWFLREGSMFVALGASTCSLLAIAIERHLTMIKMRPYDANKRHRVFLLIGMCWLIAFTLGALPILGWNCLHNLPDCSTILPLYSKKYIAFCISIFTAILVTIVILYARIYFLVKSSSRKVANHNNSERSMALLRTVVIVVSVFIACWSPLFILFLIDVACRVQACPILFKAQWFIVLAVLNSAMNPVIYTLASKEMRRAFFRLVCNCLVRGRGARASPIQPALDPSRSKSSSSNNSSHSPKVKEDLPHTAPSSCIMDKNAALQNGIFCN
Source text: as §1

Row | Compound | minimal effective concentration [1] [µM] | also measured
1 | CC(C)(C)[C@H]1CC[C@H](Oc2cccc(-c3cccc(CNCCC(=O)O)c3)c2)CC1 [Example 4, 3-(((3′-((trans-4-(tert-Butyl)cyclohexyl)oxy)-[1,1′-biphenyl]-3-yl)methyl)amino)propanoic acid] | 0.5 to 5 | –
2 | CC(C)(C)[C@H]1CC[C@H](Oc2ccc(-c3cccc(CNC4CC(C(=O)O)C4)c3)cc2)CC1 (stereo partly drawn) [Example 10, 3-(((4′-((trans-4-(tert-Butyl)cyclohexyl)oxy)-[1,1′-biphenyl]-3-yl)methyl)amino)cyclobutanecarboxylic acid] | 0.5 to 5 | –
3 | CC(C)(C)[C@H]1CC[C@H](Oc2ccc(-c3ccc(CNCCC(=O)O)cc3)cc2)CC1 [Example 24, 3-((4′-(trans-4-tert-Butylcyclohexyloxy)biphenyl-4-yl)methylamino)propanoic acid] | 0.5 to 5 | –
4 | CC(C)(C)[C@H]1CC[C@H](n2nc(-c3cccc(CNCCC(=O)O)c3)ccc2=O)CC1 [Example 48, 3-((3-(1-(trans-4-(tert-butyl)cyclohexyl)-6-oxo-1,6-dihydropyridazin-3-yl)benzyl)amino)propanoic acid] | – | S1P4 agonist activity EC50 [2]: 1 to 5000 nM
5 | CC(C)(C)[C@H]1CC[C@H](Oc2cnc(-c3cccc(CNCCC(=O)O)c3)nc2)CC1 [Example 50, 3-(3-(5-(trans-4-tert-Butylcyclohexyloxy)pyrimidin-2-yl)benzylamino)propanoic acid] | – | EC50 [3]: 50 to 5000 nM
6 | CC(C)(C)[C@H]1CC[C@H](Oc2ccc(-c3csc(CNCCC(=O)O)n3)cc2)CC1 [Example 62, 3-(((4-(4-((trans-4-(tert-Butyl)cyclohexyl)oxy)phenyl)thiazol-2-yl)methyl)amino)propanoic acid] | 0.5 to 5 | –
7 | CC(C)(C)[C@H]1CC[C@H](Oc2ccc(-n3cc(CN4CCC(C(=O)O)CC4)nn3)cc2)CC1 [Example 93, 1-((1-(4-(trans-4-tert-Butylcyclohexyloxy)phenyl)-1H-1,2,3-triazol-4-yl)methyl)piperidine-4-carboxylic acid] | 0.5 to 5 | –
8 | CC(C)(C)[C@H]1CC[C@H](Oc2ccc(-c3cccc(CNCCC(=O)O)c3F)cc2)CC1 [Example 95] | 0.5 to 5 | –
9 | O=C(O)C1CCN(Cc2cccc(-c3ccc(OC4CCC5(CCC5)CC4)cc3)c2F)C1 (centres unmarked) [Example 106, 1-((2-fluoro-4′-(spiro[3.5]nonan-7-yloxy)-[1,1′-biphenyl]-3-yl)methyl)pyrrolidine-3-carboxylic acid] | 0.5 to 5 | –
10 | O=C(O)C1CCN(Cc2cccc(-c3ccc(OC4CCC5(CCCC5)CC4)cc3)c2F)C1 (centres unmarked) [Example 114, 1-((2-fluoro-4′-(spiro[4.5]decan-8-yloxy)-[1,1′-biphenyl]-3-yl)methyl)pyrrolidine-3-carboxylic acid] | 0.5 to 5 | –
11 | O=C(O)C1CCCN(Cc2cccc(-c3ccc(OC4CCC5(CCCC5)CC4)cc3)c2F)C1 (centres unmarked) [Example 115, 1-((2-fluoro-4′-(spiro[4.5]decan-8-yloxy)-[1,1′-biphenyl]-3-yl)methyl)piperidine-3-carboxylic acid] | 0.5 to 5 | –
12 | CC(C)[C@H]1CC[C@H](Oc2ccc(-c3cccc(CN4CCC(C(=O)O)C4)c3F)cc2)CC1 (some centres unmarked) [Example 138, 1-((2-fluoro-4′-(((1r,4r)-4-isopropylcyclohexyl)oxy)-[1,1′-biphenyl]-3-yl)methyl)pyrrolidine-3-carboxylic acid] | 0.5 to 5 | –
13 | CC(C)[C@H]1CC[C@H](Oc2ccc(-c3cccc(CN4CCCC(C(=O)O)C4)c3F)cc2)CC1 (some centres unmarked) [Example 139, 1-((2-fluoro-4′-(((1r,4r)-4-isopropylcyclohexyl)oxy)-[1,1′-biphenyl]-3-yl)methyl)piperidine-3-carboxylic acid] | 0.5 to 5 | –
14 | CC(C)[C@H]1CC[C@H](Oc2ccc(-c3cccc(CN4CCC(C(=O)O)CC4)c3F)cc2)CC1 [Example 140, 1-((2-fluoro-4′-(((1r,4r)-4-isopropylcyclohexyl)oxy)-[1,1′-biphenyl]-3-yl)methyl)piperidine-4-carboxylic acid] | 0.5 to 5 | –
